{
  "source": "patent US20070149481A1",
  "about": "“N,n-bridged, nitrogen-substituted carbacyclic indolocarbazoles as protein kinase inhibitors” (priority 2002, published 2007)",
  "experiment": "Determination of brain/plasma ratios for NAD0241 and comparison with NAD0180 (Example 56E)",
  "assay_type": "in vivo, Wistar Han Rats",
  "conditions": "rats, 5 mg/kg i.v., 1 hour post-administration",
  "protocol": "Application of Compound: 5 mg/kg of NAD 241 and NAD0180 each in a vehicle of 1.5 mL/kg PEG 400 Macrogol Ph. Eur. were applied i.v. through the femoral vein to two groups (n=3) of Wistar Han Rats weighing between 240-270 g. The application was performed under anaesthesia, initiated with 3.5% Isofluorane/O2, then maintained at 1% during compound application and suture of the vein. 200 μL of local anaesthetic lidocaine were locally administered. 1 hour after application of the compound 200 μl of blood were obtained by tail vein incision. Immediately following the blood sampling rats were terminated by decapitation after brief CO2 anaesthesia Brains were resected and weighed. Plasma was obtained by centrifugation of the tail vein blood at 13000 g for 20 minutes at 4° C. […]\nEstablishment of Extraction Recovery and Standard Curve for NAD0241 and NAD0180: 100 μL of plasma or 0.5 g brain tissue homogenate in saturated NaCl, obtained from control rats, were spiked with NAD0241 and NAD0180, respectively, to produce concentrations ranging from 1 ng/mL to 5 μg/mL. […] Quantitative analysis of the extracts was performed by HPLC with fluorescence detection. […] Fluorescence detection and quantitation by peak area was performed with a G1321A (Agilent Tech 1100 series) detector at excitation and emission wavelengths of 317 nm and 542 nm, respectively, for NAD0241, and 315 nm and 565 nm for NAD0180. […]",
  "data": [
    {"smiles": "NC(=O)[C@]1(N)CC2CC1n1c3ccccc3c3c4c(c5c6ccccc6n2c5c31)C(=O)NC4=O", "note": "(mixture of isomers) [Compound 5]", "values": [
      {"measurement": "brain/plasma ratio fold difference vs NAD0180 at 1 h", "setting": "Wistar Han, rat, brain and plasma, iv", "result": "> 30", "unit": "fold"},
      {"measurement": "ability to pass the BBB / blood-brain barrier penetration", "setting": "NAD0241 vs NAD0180", "result": "pass more readily the BBB"}
    ]}
  ]
}
